Series [1] has as its system colon cancer cells (SW480). The experiment in a line: Antiproliferative effect of A1F-D1F on colon cancer cells. Format: cell-based. To be noted: for effect on cell viability with respect to the control (no drug): SW480, FIG. 3; for cell viability with respect to the control: human, 24 h. As for the experimental part:
The antiproliferative effect of the following compounds A1F, B1F, C1F and D1F were tested on colon cancer cells (SW480).

The next series relates to LoVo cells. The experiment in a line: MTT colorimetric assay of antiproliferative efficacy. To be noted: FIG. 4. Format: cell-based.
The subject of the next series is SW620 cells. The experiment in a line: Label-free temporal quantitative pharmacoproteomics. Format: cell-based. To be noted: 0.04 mM. As for the experimental part: The following experiment was performed to uncover new biomarkers of therapeutic response to the anticancer efficacy of the natural product based theranostic systems of the present invention.
In this experiment, SW620 cells were seeded in T75 flasks in DMEM, 10% FBS and 1% Penicillin/Streptomycin (all from Gibco). The cells were allowed to attach overnight. The following day the medium was removed and fresh medium containing 0.04 mM of either γT (γ-tocotrienol) or DCE-γT (diluted in absolute ethanol; final concentration of ethanol in the medium was 0.1% v/v). For control untreated cells, equal amount of fresh medium (containing ethanol at 0.1% v/v final concentration) was added.
SW620 cells were harvested after 24, 36 and 48 hrs of incubation with γT or DCE-γT. Briefly, the medium was removed and the cells were rinsed three times with PBS (without Ca, Mg) (Gibco). Fresh PBS was added and the cells were scraped off the flasks and collected in tubes. Collected cells were centrifuged at 1000 rpm (165 g) for 3 min and the supernatant was removed. The cell pellet was re-suspended in PBS and the centrifugation step was repeated. The supernatant was removed and the cells in minimal residual PBS were snap-freezed in liquid nitrogen. Once frozen the cells were stored in −80° C. until the proteomics analysis.
In terms of data analysis, a threshold of relative protein abundance equal or greater than 1.5-fold increase or decrease was set.

Series [2] can be described thus: In vivo biodistribution by quantitative fluorescence imaging. Further details: species or system mouse. As for the experimental part:
A study of the in vivo biodistribution of a dicarboxylic ester of γ-Tocotrienol (DCE-γT) (enabled by customized histopathologic processing and quantitative fluorescence imaging) was performed. The study disclosed liver uptake as a function of time defining fluorescent chromanol esters as valued molecular probes. The structure of the dicarboxylic ester of γ-Tocotrienol (DCE-γT) is as follows:
Fluorescent signals of the DCE-γT and its free fluorescent metabolite, corresponding to the fluorescent ligand, peaked at 30 min and 3 hrs respectively, which was in agreement with in vitro findings. Colon uptake as a function of time confirms the mitochondrial predilection of the esterified chromanols and claims a new generation of optically active mitocans.

Series [3] has as its target T1, EGFR membrane tyrosine kinase receptor (Homo sapiens, UniProt P00533).
T1 construct: expressed in transfected cells
The experiment in a line: FRET between EGFR-Luc and fluorescent ester in transfected cells. To be noted: EGFR negative colon cancer cells transfected with EGFR-Luc plasmid; FIG. 5. Format: cell-based. The method, then: The fluorescent esters of the natural products disclosed herein can also be used as molecular probes for deciphering the interaction between the natural product and potential biomarkers in cancer cells. EGFR negative colon cancer cells were transiently transfected with a rationally designed EGFR-Luc plasmid and incubated with the DCE-γ-Tocotrienol ester. Bioluminescence of the Luciferase (donor) was assessed against the fluorescence signal of either the DCE-γ-Tocotrienol ester or the hydrolysis product (acceptor).

Series [4] relates to EGFR-Luc and Grb2-GFP interaction. Nature of the series: BRET of the interaction between EGFR-Luc and Grb2-GFP. The format is cell-based. Background: In BRET a luciferase serves as donor, and the signal depends on an acceptor being close.

On to `C=CC(=O)Nc1cc2c(Nc3ccc(Br)cc3)ncnc2cc1NC(=O)CCl` [A1F], for which, in series [1], the “effect on cell viability with respect to the control (no drug)” value (from here on “effect on cell viability … (no drug)”) is “reduce the viability of the cells” and the “cell viability with respect to the control” value is 20%.
As for `C=CC(=O)Nc1cc2c(Nc3ccc(C(C)C)cc3)ncnc2cc1NC(=O)CCl` [B1F], in series [1], the “effect on cell viability … (no drug)” value was “reduce the viability of the cells”.
As to `C=CC(=O)Nc1cc2c(NCc3cccc4ccccc34)ncnc2cc1NC(=O)CCl` [C1F], in series [1], the “effect on cell viability … (no drug)” value is listed as “reduce the viability of the cells” and the “cell viability with respect to the control” value is 20%.
`C=CC(=O)Nc1cc2c(Nc3ccc(C(C)(C)C)cc3)ncnc2cc1NC(=O)CCl` [D1F]: in series [1], the “effect on cell viability … (no drug)” value is “reduce the viability of the cells” and the “cell viability with respect to the control” value was 20%.
Turning to `CC1(C)C(/C=C/C=C/C=C/C=C2\N(CCCCS(=O)(=O)[O-])c3ccc4ccccc4c3C2(C)C)=[N+](CCCCS(=O)(=O)[O-])c2ccc3ccccc3c21.[Na+]` [free cyanine dye, indocyanine green, reference compound], the antiproliferative efficacy result with LoVo cells is “did not exhibit any antiproliferative effects”.
The same measure, in the same setting: for `CCN1\C(=C/C=C/C=C/C=C/C2=[N+](CCCCCC(=O)NCC(=O)Nc3cccc(Nc4ncnc5ccc(NC(=O)COC)cc45)c3)c3ccc4ccccc4c3C2(C)C)C(C)(C)c2c1ccc1ccccc21.[Br-]` [theranostic system] the value was “significantly higher antiproliferative efficacy than free anilinoquinazoline”.
Consider `CC(C)=CCC/C(C)=C/CC/C(C)=C/CC[C@]1(C)CCc2cc(O)c(C)c(C)c2O1` [γT, γ-tocotrienol, reference compound], for which, in the series with SW620 cells (versus untreated control), the “decrease in protein level of histone H2B types” value is reported as 1.8 fold, the “decrease in protein level of histone H3 types” value was “at least 3.7 fold”, the “decrease in protein level of hnRNPs” value was “at least 2 fold” and the “decrease in protein level of snRNPs” value is recorded as 1.8 fold. Moreover, in the series on SW620 cells (versus untreated control), the “increase in histone H2A.Z” value was determined as 24 fold, the “increase in level of RNA helicases” value is reported as at least 1.9 fold, the “increase in level of certain snRNP components” value is reported as at least 3 fold and the “increase in level of transcription regulators/co-factors” value is given as at least 2 fold.
On to “dicarboxylic ester of γ-Tocotrienol [DCE-γT]”, for which the “time of peak fluorescent signal” value in series [2] (in vivo biodistribution, liver uptake as a function of time) is recorded as 30 min. The “blood brain barrier passage” value in series [2] (uptake by mouse brain parenchyma cells) is “able to pass the blood brain barrier”. Moreover, the FRET signal entry in series [3] is given as “amplified FRET signal”. Also, the “activation within the EGFR axis” value in series [4] was “neither the ester nor the hydrolysis products elicit any unwanted activation”. The “number of proteins whose expression was elicited” value (from here on “number”) in the series on SW620 cells (24 hrs) turned out to be 37. Also, the “number” value with SW620 cells (36 hrs) is 30. Moreover, the “number” value in the series with SW620 cells (48 hrs) came out at 29. Further, in the series with SW620 cells (versus untreated control), the “decrease in DNA repair factors” value was 2 fold, the “decrease in protein level of histone H3 types” value is “at least 6 fold”, the “decrease in protein level of snRNPs” value worked out at 2 fold and the “increase in histone H2A.Z” value is reported as 23 fold. In addition, in the series on SW620 cells (versus untreated control), the “increase in histone H3 forms” value is listed as at least 1.8 fold.

These data come from patent US10640524B2, “Prototype systems of theranostic biomarkers for in vivo molecular management of cancer” (EPOS-IASIS RESEARCH AND DEVELOPMENT, LTD, priority 2015, dated 2020).
